Laboratory results: US11331299B2, “Medicinal use of serrulatane diterpenes” (The University of Sydney, priority 2016, dated 2022)

Experiments:
[1] = biological target: T1, G9a (h) (Homo sapiens, UniProt Q96KQ7); assay: Epigenetic enzyme assay, Methyltransferases (MTs); type: biochemical
T1 sequence (Q96KQ7 1-1210): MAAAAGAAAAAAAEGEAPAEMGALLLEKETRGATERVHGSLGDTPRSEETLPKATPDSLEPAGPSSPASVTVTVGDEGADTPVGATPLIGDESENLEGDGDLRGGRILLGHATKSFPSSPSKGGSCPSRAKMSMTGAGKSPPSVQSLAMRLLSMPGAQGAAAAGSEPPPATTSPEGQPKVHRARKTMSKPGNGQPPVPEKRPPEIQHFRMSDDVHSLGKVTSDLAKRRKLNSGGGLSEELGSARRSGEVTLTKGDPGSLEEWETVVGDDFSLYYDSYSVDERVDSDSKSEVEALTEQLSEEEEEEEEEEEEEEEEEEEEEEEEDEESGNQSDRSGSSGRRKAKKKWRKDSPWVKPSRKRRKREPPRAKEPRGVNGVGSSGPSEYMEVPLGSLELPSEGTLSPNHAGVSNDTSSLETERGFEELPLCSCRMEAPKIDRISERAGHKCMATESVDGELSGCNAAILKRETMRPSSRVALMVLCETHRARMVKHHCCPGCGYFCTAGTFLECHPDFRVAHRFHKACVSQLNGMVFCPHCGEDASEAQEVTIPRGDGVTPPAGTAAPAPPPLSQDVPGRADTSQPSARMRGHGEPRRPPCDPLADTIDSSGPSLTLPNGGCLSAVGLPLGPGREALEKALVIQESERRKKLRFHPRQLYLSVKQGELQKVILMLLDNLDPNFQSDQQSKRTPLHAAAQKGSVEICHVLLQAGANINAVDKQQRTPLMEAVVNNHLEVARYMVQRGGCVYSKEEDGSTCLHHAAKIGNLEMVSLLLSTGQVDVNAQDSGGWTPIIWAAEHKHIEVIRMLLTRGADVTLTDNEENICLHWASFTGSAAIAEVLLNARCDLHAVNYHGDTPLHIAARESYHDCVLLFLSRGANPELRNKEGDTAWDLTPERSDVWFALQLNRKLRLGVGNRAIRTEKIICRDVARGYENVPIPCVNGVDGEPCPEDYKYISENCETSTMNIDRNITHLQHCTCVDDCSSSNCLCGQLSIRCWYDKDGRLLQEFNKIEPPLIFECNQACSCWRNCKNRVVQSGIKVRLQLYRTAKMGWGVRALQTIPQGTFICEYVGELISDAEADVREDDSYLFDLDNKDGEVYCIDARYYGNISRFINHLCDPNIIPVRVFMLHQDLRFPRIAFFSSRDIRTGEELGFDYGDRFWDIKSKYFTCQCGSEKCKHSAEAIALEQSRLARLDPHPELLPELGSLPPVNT

[2] = test system: MLL2(h) complex; assay: Epigenetic enzyme assay, Methyltransferases (MTs); type: biochemical, human; conditions: 10 μM
[3] = biological target: PRMT5 complex (h) (Homo sapiens, UniProt O14744); assay: Epigenetic enzyme assay, Methyltransferases (MTs); type: biochemical; conditions: read-out: % Inhibition of Control Values
Chain of PRMT5 complex (h) (O14744 whole entry): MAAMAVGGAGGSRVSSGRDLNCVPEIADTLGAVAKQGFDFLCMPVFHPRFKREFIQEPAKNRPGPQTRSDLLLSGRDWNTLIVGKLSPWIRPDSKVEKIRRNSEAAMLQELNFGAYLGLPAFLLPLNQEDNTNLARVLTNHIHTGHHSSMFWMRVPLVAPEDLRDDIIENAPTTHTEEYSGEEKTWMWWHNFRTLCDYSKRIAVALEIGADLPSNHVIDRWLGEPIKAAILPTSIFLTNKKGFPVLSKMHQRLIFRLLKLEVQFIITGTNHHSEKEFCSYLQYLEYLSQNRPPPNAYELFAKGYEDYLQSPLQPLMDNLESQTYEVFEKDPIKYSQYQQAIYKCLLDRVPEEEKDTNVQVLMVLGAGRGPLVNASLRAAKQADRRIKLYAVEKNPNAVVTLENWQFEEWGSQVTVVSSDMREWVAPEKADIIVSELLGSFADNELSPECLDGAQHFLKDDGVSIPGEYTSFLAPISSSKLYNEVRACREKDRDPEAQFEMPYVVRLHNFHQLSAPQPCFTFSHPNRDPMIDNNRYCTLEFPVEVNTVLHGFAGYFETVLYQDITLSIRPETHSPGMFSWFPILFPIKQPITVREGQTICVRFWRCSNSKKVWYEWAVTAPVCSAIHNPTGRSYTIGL
Chain of PRMT5 complex (h) (Q9BQA1 whole entry partner): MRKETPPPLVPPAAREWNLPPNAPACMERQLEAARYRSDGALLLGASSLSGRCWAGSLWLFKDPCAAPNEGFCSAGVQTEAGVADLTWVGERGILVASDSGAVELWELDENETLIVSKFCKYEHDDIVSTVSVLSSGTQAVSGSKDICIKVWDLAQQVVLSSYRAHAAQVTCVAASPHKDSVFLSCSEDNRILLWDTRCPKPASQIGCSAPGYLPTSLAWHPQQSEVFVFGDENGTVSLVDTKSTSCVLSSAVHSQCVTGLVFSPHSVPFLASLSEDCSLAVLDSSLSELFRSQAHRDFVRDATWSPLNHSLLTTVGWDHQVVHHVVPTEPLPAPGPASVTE

[4] = biological target: T2, Glycine N-methyltransferase (h) (Homo sapiens, UniProt Q14749); assay: Epigenetic enzyme assay, Small molecule methyltransferases; type: biochemical; conditions: read-out: % Inhibition of Control Values
T2 sequence (Q14749 1-295): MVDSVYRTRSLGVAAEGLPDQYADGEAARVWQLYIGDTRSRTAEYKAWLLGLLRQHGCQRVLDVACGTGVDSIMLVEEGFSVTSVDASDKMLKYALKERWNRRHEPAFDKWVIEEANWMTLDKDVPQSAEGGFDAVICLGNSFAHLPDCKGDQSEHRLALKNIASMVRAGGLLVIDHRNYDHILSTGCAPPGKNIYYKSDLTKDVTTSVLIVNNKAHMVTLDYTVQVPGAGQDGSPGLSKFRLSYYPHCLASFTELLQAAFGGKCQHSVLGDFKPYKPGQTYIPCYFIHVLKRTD

[5] = biological target: T3, Chemokine CCR1 (Homo sapiens, UniProt P32246); assay: Chemokine CCR1 radio ligand binding; conditions: assay year 2015, read-out: % Control Response
T3 construct: expressed in transfected cells; host or cells: Chem-2 cells
T3 sequence (P32246 1-355): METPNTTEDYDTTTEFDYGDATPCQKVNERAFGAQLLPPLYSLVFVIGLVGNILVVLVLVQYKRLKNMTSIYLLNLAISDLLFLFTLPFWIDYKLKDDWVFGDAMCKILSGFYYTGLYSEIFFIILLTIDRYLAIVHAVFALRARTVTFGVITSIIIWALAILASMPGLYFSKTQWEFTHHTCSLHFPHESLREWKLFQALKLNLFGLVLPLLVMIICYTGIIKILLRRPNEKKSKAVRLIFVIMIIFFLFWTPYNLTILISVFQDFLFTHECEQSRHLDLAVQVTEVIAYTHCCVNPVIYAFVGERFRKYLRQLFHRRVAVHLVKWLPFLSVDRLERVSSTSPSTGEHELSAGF
Description: (§1) The in vitro pharmacological studies were conducted by Eurofins PanLab (Taiwan) using the parameters shown in Table 13 with respect to appropriate literature references.

[6] = test system: Catechol-O-Methyl Transferase (COMT); assay: Catechol-O-Methyl Transferase (COMT); type: biochemical, Porcine; conditions: 10 μM; assay year 2015
Description: as §1

[7] = test system: 43 cancer cell lines and one normal cell line; assay: In vitro cell viability assay (intracellular ATP, 72 hour); type: cell-based; conditions: 10 μM

With `CC(C)=CCC[C@@H]1C(O)Oc2c(C)cc(O)c3c2[C@H]1CC[C@H]3C` (some centres unmarked) [Compound 2, 5,18-epoxyserrulat-14-en-8,18-diol] the “% Inhibition of Control Values” ([1]; 10 μM) was “weaker”, the inhibition at 10 µM ([1]; 10 μM, read-out: % Inhibition of Control Values) was 64% and the IC50 ([1]; Table 11, inhibition/concentration-response curve) was 5.4 µM. For the same compound, the “% Inhibition of Control Values” [2] was 3%, the inhibition at 10 µM [3] was -8% and the inhibition at 10 µM [4] was 5%. The remaining activity at 10 µM [5] was -3%, the “% Control Response” value [6] was −1% and the “effect on cell viability” value ([7]; remaining cell lines (other than HL-60)) was “no significant effect”. The “% Cell growth” value ([7]; 4T1 (Breast Cancer)) was 60%, the “% Cell growth” value ([7]; A375 (Skin)) was 74% and the “% Cell growth” value ([7]; A-431 (Skin)) was 100%. The “% Cell growth” value ([7]; A-498 (Kidney Cancer)) was 91%, the “% Cell growth” value ([7]; ACHN (Kidney Cancer)) was 101% and the “% Cell growth” value ([7]; B16-F0 (Melanoma)) was 123%. The “% Cell growth” value ([7]; BT474 (Breast Cancer)) was 118%, the “% Cell growth” value ([7]; CT26.WT (Colon Cancer)) was 120% and the “% Cell growth” value ([7]; DLD-1 (Colon Cancer)) was 95%. The “% Cell growth” value ([7]; H33HJ-JA1 (Lymphoma)) was 57%, the “% Cell growth” value ([7]; HC-4 (Liver Cancer)) was 104% and the “% Cell growth” value ([7]; HCT-15 (Colon Cancer)) was 94%. The “% Cell growth” value ([7]; HCT-116 (Colon Cancer)) was 81%, the “% Cell growth” value ([7]; HT-29 (Colon Cancer)) was 107% and the “% Cell growth” value ([7]; Hep3B (Liver Cancer)) was 87%. The “% Cell growth” value ([7]; HepG2 (Liver Cancer)) was 95%, the “% Cell growth” value ([7]; K-562 (Leukemia)) was 69% and the “% Cell growth” value ([7]; KATO III (Stomach)) was 84%. For the same compound, the “% Cell growth” value ([7]; LL/2 (Non-Small Cell Lung Cancer)) was 105%, the “% Cell growth” value ([7]; LNCaP (Prostrate Cancer)) was 73% and the “% Cell growth” value ([7]; MCF7 (Breast Cancer)) was 114%. For the same compound, the “% Cell growth” value ([7]; MCF-7 AdrR (Breast Cancer)) was 92%, the “% Cell growth” value ([7]; MDA-MB-231 (Breast Cancer)) was 97% and the “% Cell growth” value ([7]; MDA-MB-468 (Breast Cancer)) was 37%. For the same compound, the “% Cell growth” value ([7]; MES-SA (Uterus)) was 75%, the “% Cell growth” value ([7]; MIA PaCa-2 (Pancreas)) was 92% and the “% Cell growth” value ([7]; MOLT-4 (Leukemia)) was 38%. The “% Cell growth” value ([7]; MV-411 (Leukemia)) was 37%, the “% Cell growth” value ([7]; NCI-H460 (Non-Small Cell Lung Cancer)) was 88% and the “% Cell growth” value ([7]; OVCAR-3 (Ovarian Cancer)) was 67%. For the same compound, the “% Cell growth” value ([7]; PANC-1 (Pancreas)) was 87%, the “% Cell growth” value ([7]; PC-3 (Prostrate Cancer)) was 99% and the “% Cell growth” value ([7]; PC-6 (Non-Small Cell Lung Cancer)) was 92%. The “% Cell growth” value ([7]; Ramos (Lymphoma)) was 33%, the “% Cell growth” value ([7]; SK-MEL-5 (Melanoma)) was 95% and the “% Cell growth” value ([7]; SK-N-MC (Brain)) was 73%. The “% Cell growth” value ([7]; SK-OV-3 (Ovarian Cancer)) was 82%, the “% Cell growth” value ([7]; SW-620 (Colon Cancer)) was 97% and the “% Cell growth” value ([7]; T-47D (Breast Cancer)) was 104%. The “% Cell growth” value ([7]; U937 (Lymphoma)) was 102% and the “% Cell growth” value ([7]; U-87 MG (Brain)) was 101%.
